{"source": "patent US20240208928A1", "about": "“NOVEL COMPOUNDS” (Hoffmann-La Roche Inc., priority 2021, published 2024)", "key": {"NLRP3 [1]": {"target": "T1, NLRP3 (Homo sapiens, UniProt Q96P20)", "T1 sequence (Q96P20 whole entry)": "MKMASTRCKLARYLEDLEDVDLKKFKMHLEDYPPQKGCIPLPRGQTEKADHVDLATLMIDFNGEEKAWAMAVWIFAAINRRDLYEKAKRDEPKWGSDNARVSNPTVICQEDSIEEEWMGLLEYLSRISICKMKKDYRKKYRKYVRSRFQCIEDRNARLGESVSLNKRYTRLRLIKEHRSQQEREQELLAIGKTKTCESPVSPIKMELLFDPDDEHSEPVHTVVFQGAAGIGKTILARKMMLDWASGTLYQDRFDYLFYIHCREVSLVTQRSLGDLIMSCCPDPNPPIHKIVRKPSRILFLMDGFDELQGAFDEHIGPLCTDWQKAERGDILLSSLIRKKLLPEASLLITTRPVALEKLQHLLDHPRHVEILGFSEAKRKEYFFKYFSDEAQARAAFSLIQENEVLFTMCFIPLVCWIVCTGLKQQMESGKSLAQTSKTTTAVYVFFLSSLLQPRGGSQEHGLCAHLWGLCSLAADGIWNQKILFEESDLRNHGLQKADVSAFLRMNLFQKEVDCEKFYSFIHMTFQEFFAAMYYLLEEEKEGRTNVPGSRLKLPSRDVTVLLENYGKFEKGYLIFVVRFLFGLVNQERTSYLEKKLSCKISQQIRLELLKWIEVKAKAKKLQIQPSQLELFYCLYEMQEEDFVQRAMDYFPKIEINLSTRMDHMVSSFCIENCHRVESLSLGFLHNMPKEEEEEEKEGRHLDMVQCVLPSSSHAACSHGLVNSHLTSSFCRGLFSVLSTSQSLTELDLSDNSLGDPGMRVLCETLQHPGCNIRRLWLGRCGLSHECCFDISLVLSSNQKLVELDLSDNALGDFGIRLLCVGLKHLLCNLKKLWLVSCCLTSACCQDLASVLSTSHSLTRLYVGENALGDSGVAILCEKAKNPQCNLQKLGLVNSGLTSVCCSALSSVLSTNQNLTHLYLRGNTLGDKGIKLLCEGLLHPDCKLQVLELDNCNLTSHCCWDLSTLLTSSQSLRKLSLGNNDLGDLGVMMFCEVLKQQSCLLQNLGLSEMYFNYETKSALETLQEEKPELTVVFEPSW", "test": "THP-1 cells pyroptosis assay", "format": "cell-based", "parameters": "Seed THP-1 cells (25,000 cells/well) containing 1.0 μg/ml LPS; host or cells: THP-1 cells, LPS-primed, nigericin-stimulated", "conditions": "1.0 μg/ml LPS, nigericin 5 μM, resazurin readout", "protocol": "The cells were routinely passaged and grown to confluency (˜10^6 cells/ml). On the day of the experiment, THP-1 cells were harvested and resuspended into RPMI medium (without FBS). […] To this diluted cell solution was added LPS (Sigma #L4524) to give a 1 μg/ml Final Assay Concentration (FAC). 40 μl of the final preparation was aliquoted into each well of a 96-well plate. The plate thus prepared was used for compound screening.\nThe following method step-by-step assay was followed for compound screening. • 1. […] Incubate for 3 hrs at 37° C., 5% CO2 • 4. Add 5 μl nigericin (Sigma #N7143) (FAC 5 μM) to all wells • 5. Incubate for 1 hr at 37° C., 5% CO2 • 6. At the end of the incubation period, spin plates at 300×g for 3 mins and remove supernatant • 7. Then add 50 μl of resazurin (Sigma #R7017) (FAC 100 μM resazurin in RPMI medium without FBS) and incubate plates for a further 1-2 hrs at 37° C. and 5% CO2 • 8. […] IC50 data is fitted to a non-linear regression equation (log inhibitor vs response-variable slope 4-parameters)"}, "NLRP3 [2]": {"target": "T1, NLRP3", "test": "Human whole blood IL-1β release assay", "format": "cell-based", "parameters": "Human whole blood in Li-heparin tubes was obtained from healthy donors; from tissue; host or cells: human whole blood from healthy donors, LPS-primed, nigericin-stimulated", "conditions": "1 μg/ml LPS, nigericin 10 μM, IL-1β by AlphaLisa", "protocol": "For systemic delivery, the ability to inhibit NLRP3 when the compounds are present within the bloodstream is of great importance. For this reason, the NLRP3 inhibitory activity of a number of compounds in human whole blood was investigated in accordance with the following protocol.\nHuman whole blood in Li-heparin tubes was obtained from healthy donors from a volunteer donor panel. • 1. […] Incubate for 3 hrs at 37° C., 5% CO2 • 4. Add 10 μl nigericin (Sigma #N7143) (10 μM FAC) to all wells • 5. Incubate for 1 hr at 37° C., 5% CO2 • 6. At the end of the incubation period, spin plates at 300×g for 5 mins to pellet cells and remove 20 μl of supernatant and add to 96-well v-bottom plates for IL-1β analysis (note: these plates containing the supernatants can be stored at −80° C. to be analysed at a later date) • 7. IL-1β was measured according to the manufacturer protocol (Perkin Elmer-AlphaLisa IL-1 Kit AL220F-5000) • 8. IC50 data is fitted to a non-linear regression equation (log inhibitor vs response-variable slope 4-parameters)"}}}
{"smiles": "CCCN1CCC[C@@H](Nc2nnc(-c3ccc(C(F)(F)F)cc3O)n(C)c2=O)C1", "note": "[Example 8, 3-[2-Hydroxy-4-(trifluoromethyl)phenyl]-4-methyl-6-[[(3R)-1-propyl-3-piperidyl]amino]-1,2,4-triazin-5-one;2,2,2-trifluoroacetic Acid]", "values": [{"measurement": "IC50", "setting": "NLRP3 [1]", "result": 53, "unit": "nM"}, {"measurement": "IC50", "setting": "NLRP3 [2]", "result": 32, "unit": "nM"}]}
{"smiles": "CCN1CCC[C@@H](Nc2nnc(-c3ccc(C(F)(F)F)cc3O)n(CC)c2=O)C1", "note": "[Example 22, 4-Ethyl-6-[[(3R)-1-ethyl-3-piperidyl]amino]-3-[2-hydroxy-4-(trifluoromethyl)phenyl]-1,2,4-triazin-5-one]", "values": [{"measurement": "IC50", "setting": "NLRP3 [1]", "result": 94, "unit": "nM"}, {"measurement": "IC50", "setting": "NLRP3 [2]", "result": 48, "unit": "nM"}]}
{"smiles": "CCN1CCC[C@@H](Nc2nnc(-c3ccc(C(C)=O)cc3O)n(C)c2=O)C1", "note": "[Example 25, 3-(4-Acetyl-2-hydroxy-phenyl)-6-[[(3R)-1-ethyl-3-piperidyl]amino]-4-methyl-1,2,4-triazin-5-one]", "values": [{"measurement": "IC50", "setting": "NLRP3 [1]", "result": 9.3, "unit": "nM"}, {"measurement": "IC50", "setting": "NLRP3 [2]", "result": 15, "unit": "nM"}]}
{"smiles": "Cn1c(-c2ccc(C(F)(F)F)cc2O)nnc(NCc2cccc(O)c2)c1=O", "note": "[Example 18, 6-[(3-Hydroxyphenyl)methylamino]-3-[2-hydroxy-4-(trifluoromethyl)phenyl]-4-methyl-1,2,4-triazin-5-one;2,2,2-trifluoroacetic Acid]", "values": [{"measurement": "IC50", "setting": "NLRP3 [1]", "result": 1.2, "unit": "nM"}, {"measurement": "IC50", "setting": "NLRP3 [2]", "result": 8.1, "unit": "nM"}]}
{"smiles": "Cn1c(-c2ccc(C(F)(F)F)cc2O)nnc(N[C@@H]2CCCN(CC3CC3)C2)c1=O", "note": "[Example 5, (R)-6-((1-(Cyclopropylmethyl)piperidin-3-yl)amino)-3-(2-hydroxy-4-(trifluoromethyl)phenyl)-4-methyl-1,2,4-triazin-5(4H)-one;2,2,2-trifluoroacetic Acid]", "values": [{"measurement": "IC50", "setting": "NLRP3 [1]", "result": 88, "unit": "nM"}, {"measurement": "IC50", "setting": "NLRP3 [2]", "result": 92, "unit": "nM"}]}
{"smiles": "CCN1CCC[C@@H](Nc2nnc(-c3c(C)cc(C(F)(F)F)cc3O)n(C)c2=O)C1", "note": "(single isomer, unassigned) [Example 29, (M or P)-6-[[(3R)-1-ethyl-3-piperidyl]amino]-3-[2-hydroxy-6-methyl-4-(trifluoromethyl)phenyl]-4-methyl-1,2,4-triazin-5-one]", "values": [{"measurement": "IC50", "setting": "NLRP3 [1]", "result": 7.8, "unit": "nM"}]}
{"smiles": "CCN1CCC[C@@H](Nc2nnc(-c3ccc(C(F)(F)F)cc3O)n(C3CC3)c2=O)C1", "note": "[Example 20, 4-Cyclopropyl-6-[[(3R)-1-ethyl-3-piperidyl]amino]-3-[2-hydroxy-4-(trifluoromethyl)phenyl]-1,2,4-triazin-5-one;2,2,2-trifluoroacetic Acid]", "values": [{"measurement": "IC50", "setting": "NLRP3 [1]", "result": 726, "unit": "nM"}]}
{"smiles": "CCN1CCC[C@@H](Nc2nnc(-c3ccc(C(F)(F)F)cc3O)[nH]c2=O)C1", "note": "[Example 35, 6-[[(3R)-1-Ethyl-3-piperidyl]amino]-3-[2-hydroxy-4-(trifluoromethyl)phenyl]-4H-1,2,4-triazin-5-one;2,2,2-trifluoroacetic Acid]", "values": [{"measurement": "IC50", "setting": "NLRP3 [1]", "result": 459, "unit": "nM"}]}
{"smiles": "CN1CCC[C@@H](Nc2nnc(-c3ccc(C(F)(F)F)cc3O)n(C)c2=O)C1", "note": "[Example 26, 3-[2-hydroxy-4-(trifluoromethyl)phenyl]-4-methyl-6-[[(3R)-1-methyl-3-piperidyl]amino]-1,2,4-triazin-5-one]", "values": [{"measurement": "IC50", "setting": "NLRP3 [1]", "result": 10.3, "unit": "nM"}]}
{"smiles": "Cn1c(-c2ccc(C(F)(F)F)cc2O)nnc(N[C@H]2C[C@@](C)(O)C2)c1=O", "note": "[Example 11, 6-(((1S,3S)-3-Hydroxy-3-methylcyclobutyl)amino)-3-(2-hydroxy-4-(trifluoromethyl)phenyl)-4-methyl-1,2,4-triazin-5(4H)-one]", "values": [{"measurement": "IC50", "setting": "NLRP3 [1]", "result": 391, "unit": "nM"}, {"measurement": "IC50", "setting": "NLRP3 [2]", "result": 190, "unit": "nM"}]}
{"smiles": "CCN1C[C@@H](C)C[C@@H](Nc2nnc(-c3ccc(C(F)(F)F)cc3O)n(C)c2=O)C1", "note": "[Example 14, 6-[[(3R,5S)-1-Ethyl-5-methyl-3-piperidyl]amino]-3-[2-hydroxy-4-(trifluoromethyl)phenyl]-4-methyl-1,2,4-triazin-5-one;2,2,2-trifluoroacetic Acid]", "values": [{"measurement": "IC50", "setting": "NLRP3 [1]", "result": 765, "unit": "nM"}]}
{"smiles": "CN1C[C@@H](F)C[C@@H](Nc2nnc(-c3ccc(C(F)(F)F)cc3O)[nH]c2=O)C1", "note": "[Example 36, 6-[[(3R,5S)-1-Methyl-5-fluoro-3-piperidyl]amino]-3-[2-hydroxy-4-(trifluoromethyl)phenyl]-4H-1,2,4-triazin-5-one;2,2,2-trifluoroacetic Acid]", "values": [{"measurement": "IC50", "setting": "NLRP3 [1]", "result": "> 1000", "unit": "nM"}]}
{"smiles": "CN1CCC[C@@H](Nc2nnc(-c3ccc(C(F)(F)F)cc3O)n(C)c2=O)C1", "note": "[Example 6, (R)-3-(2-Hydroxy-4-(trifluoromethyl)phenyl)-4-methyl-6-((1-methylpiperidin-3-yl)amino)-1,2,4-triazin-5(4H)-one;2,2,2-trifluoroacetic Acid]", "values": [{"measurement": "IC50", "setting": "NLRP3 [1]", "result": 24, "unit": "nM"}, {"measurement": "IC50", "setting": "NLRP3 [2]", "result": 15, "unit": "nM"}]}
{"smiles": "CCN1CCC[C@@H](Nc2nnc(-c3ccc(C(C)(F)F)cc3O)n(C)c2=O)C1", "note": "[Example 24, 3-[4-(1,1-Difluoroethyl)-2-hydroxy-phenyl]-6-[[(3R)-1-ethyl-3-piperidyl]amino]-4-methyl-1,2,4-triazin-5-one]", "values": [{"measurement": "IC50", "setting": "NLRP3 [1]", "result": 106, "unit": "nM"}, {"measurement": "IC50", "setting": "NLRP3 [2]", "result": 108, "unit": "nM"}]}
{"smiles": "CN1CC(Nc2nnc(-c3ccc(C(F)(F)F)cc3O)n(C)c2=O)C[C@H](F)C1", "note": "(stereo partly drawn) [Example 16, 6-[[(5S)-5-fluoro-1-methyl-3-piperidyl]amino]-3-[2-hydroxy-4-(trifluoromethyl)phenyl]-4-methyl-1,2,4-triazin-5-one;2,2,2-trifluoroacetic Acid]", "values": [{"measurement": "IC50", "setting": "NLRP3 [1]", "result": 860, "unit": "nM"}]}
{"smiles": "CCN1CCC[C@@H](Nc2nnc(-c3c(C)cc(C(F)(F)F)cc3O)n(C)c2=O)C1", "note": "(single isomer, unassigned) [Example 30, (P or M)-6-[[(3R)-1-ethyl-3-piperidyl]amino]-3-[2-hydroxy-6-methyl-4-(trifluoromethyl)phenyl]-4-methyl-1,2,4-triazin-5-one]", "values": [{"measurement": "IC50", "setting": "NLRP3 [1]", "result": 751, "unit": "nM"}]}
{"smiles": "CN1C2CCC(Nc3nnc(-c4ccc(C(F)(F)F)cc4O)n(C)c3=O)C1CC2", "note": "(stereo not drawn) [Example 4, 3-[2-Hydroxy-4-(trifluoromethyl)phenyl]-4-methyl-6-[(8-methyl-8-azabicyclo[3.2.1]octan-2-yl)amino]-1,2,4-triazin-5-one;2,2,2-trifluoroacetic Acid]", "values": [{"measurement": "IC50", "setting": "NLRP3 [1]", "result": 96, "unit": "nM"}, {"measurement": "IC50", "setting": "NLRP3 [2]", "result": 120, "unit": "nM"}]}
{"smiles": "Cn1c(-c2ccc(C(F)(F)F)cc2O)nnc(N[C@@H]2CCC(C)(C)NC2)c1=O", "note": "[Example 17, 6-[[(3R)-6,6-Dimethyl-3-piperidyl]amino]-3-[2-hydroxy-4-(trifluoromethyl)phenyl]-4-methyl-1,2,4-triazin-5-one;2,2,2-trifluoroacetic Acid]", "values": [{"measurement": "IC50", "setting": "NLRP3 [1]", "result": 683, "unit": "nM"}]}
{"smiles": "CN1CC(Nc2nnc(-c3ccc(C(F)(F)F)cc3O)n(C)c2=O)CC(C)(C)C1", "note": "(stereo not drawn) [Example 9, 3-[2-Hydroxy-4-(trifluoromethyl)phenyl]-4-methyl-6-[(1,5,5-trimethyl-3-piperidyl)amino]-1,2,4-triazin-5-one;2,2,2-trifluoroacetic Acid]", "values": [{"measurement": "IC50", "setting": "NLRP3 [1]", "result": 868, "unit": "nM"}]}
{"smiles": "Cn1c(-c2ccc(C(F)(F)F)cc2O)nnc(NC2CC3CNC2C3)c1=O", "note": "(stereo not drawn) [Example 13, 6-(2-Azabicyclo[2.2.1]heptan-6-ylamino)-3-[2-hydroxy-4-(trifluoromethyl)phenyl]-4-methyl-1,2,4-triazin-5-one;2,2,2-trifluoroacetic Acid]", "values": [{"measurement": "IC50", "setting": "NLRP3 [1]", "result": "> 1000", "unit": "nM"}]}
{"smiles": "CCN1C[C@H](C)C[C@@H](Nc2nnc(-c3ccc(C(F)(F)F)cc3O)n(C)c2=O)C1", "note": "[Example 15, 6-[[(3R,5R)-1-Ethyl-5-methyl-3-piperidyl]amino]-3-[2-hydroxy-4-(trifluoromethyl)phenyl]-4-methyl-1,2,4-triazin-5-one;2,2,2-trifluoroacetic Acid]", "values": [{"measurement": "IC50", "setting": "NLRP3 [1]", "result": "> 1000", "unit": "nM"}]}
{"smiles": "CCN1CCC[C@@H](Nc2nnc(-c3ccc(C#N)cc3O)n(C)c2=O)C1", "note": "[Example 32, 4-[6-[[(3R)-1-Ethyl-3-piperidyl]amino]-4-methyl-5-oxo-1,2,4-triazin-3-yl]-3-hydroxy-benzonitrile; formic acid]", "values": [{"measurement": "IC50", "setting": "NLRP3 [1]", "result": 809, "unit": "nM"}]}
{"smiles": "CCN1CCC[C@@H](Nc2nnc(-c3ccc(S(F)(F)(F)(F)F)cc3O)n(C)c2=O)C1", "note": "[Example 31, 6-[[(3R)-1-Ethyl-3-piperidyl]amino]-3-[2-hydroxy-4-(pentafluoro-λ6-sulfanyl)phenyl]-4-methyl-1,2,4-triazin-5-one]", "values": [{"measurement": "IC50", "setting": "NLRP3 [1]", "result": 115, "unit": "nM"}]}
{"smiles": "Cn1c(-c2ccc(C(F)(F)F)cc2O)nnc(N[C@@H]2CCCNC2)c1=O", "note": "[Example 3, 3-[2-Hydroxy-4-(trifluoromethyl)phenyl]-4-methyl-6-[[(3R)-3-piperidyl]amino]-1,2,4-triazin-5-one;2,2,2-trifluoroacetic Acid]", "values": [{"measurement": "IC50", "setting": "NLRP3 [1]", "result": 170, "unit": "nM"}]}
